This note sets out measurements from PubChem BioAssay (NCI).

Holding throughout (assay): inhibition of tumour cell growth, NCI panel, 48 h
Assay [1] concerns BT-549 breast.
Assay [2] relates to RXF 393 renal.
For assay [3], the system named is OVCAR-3 ovarian.
Assay [4] deals with M14 melanoma.
For assay [5], the system named is KM12 colon.
In assay [6] the test system is HT29 colon.
The subject of assay [7] is HCC-2998 colon.
For assay [8], the system named is CAKI-1 renal.
Assay [9] deals with UO-31 renal.
The test system of assay [10] is EKVX NSCLC.

Structures are written as SMILES.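 Following 48 hours of exposure in 96-well plates, responses at five concentrations were used to interpolate endpoints linearly. GI50 is the concentration that inhibits growth by half. TGI: total growth inhibition.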

Turning to `COc1cc(CNCCN2C(=O)c3ccc4c5c(ccc(c35)C2=O)C(=O)N(CCNCc2cc(OC)c(OC)c(OC)c2)C4=O)cc(OC)c1OC`, the GI50 in assay [1] is 546 nM; in assay [2] it was 251 nM; in assay [3], 174 nM; in assay [4] it was 717 nM. Moreover, the TGI in assay [1] was 1.22 µM; in [2] it was 0.902 µM; in assay [3], 0.548 µM; in assay [4], 1.4 µM.
For the molecule `O=C(C=P(c1ccccc1)(c1ccccc1)c1ccccc1)CCl`, the GI50 in assay [5] is 1940 nM; in [1], 1890 nM; in assay [2] it was 1010 nM; in assay [3] it was 1330 nM; in [6], 1130 nM; in assay [7], 1840 nM. The GI50 is 1360 nM in assay [4], 0.98 µM in [8] and 1040 nM in [9]. The TGI in assay [5] turned out to be 5.09 µM; in assay [1], 7.14 µM; in assay [2], 2.41 µM; in [3], 2.68 µM; in [6], 2.8 µM; in assay [7], 3.7 µM. Further, the results for the TGI in assay [4], in [8] and in assay [9] were 3.89 µM, 2.81 µM and 2.38 µM, respectively.
Regarding `O=C(c1ccccc1Cl)n1oc2ccccc2c1=O`, the TGI in [5], in [1], in [10], in assay [2], in assay [3] and in [6] was over 100 µM in each case. Further, the TGI in [4], in assay [8] and in assay [9] was over 100 µM throughout.
Consider `CCCCNS(=O)(=O)c1n[nH]c(=O)[nH]c1=O`, for which the TGI in [5], in assay [1], in assay [10], in assay [2], in assay [3] and in [6] was over 100 µM throughout. For the same molecule, the TGI in assay [4], in assay [8] and in assay [9] was over 100 µM throughout.
`Cc1ccc2cccc(OC(=O)Nc3cccc(C(F)(F)F)c3)c2n1`: the GI50 was 3190 nM in assay [5]; 10700 nM in [1]; 5300 nM in assay [2]; 3350 nM in assay [3]; 3450 nM in assay [6]; 5290 nM in [7]. The figures for the GI50 in [4], in assay [8] and in [9] were 4060 nM, 3.25 µM and 2400 nM, respectively. Further, the TGI was determined as 10.9 µM in assay [5]; 26.8 µM in [1]; 21.9 µM in [2]; 9.61 µM in assay [3]; 12 µM in assay [6]; 18.5 µM in assay [7]. Further, the TGI in assay [4] was determined as 16.2 µM; in assay [8], 11.8 µM; in assay [9], 8.99 µM.
Regarding `COc1cc(-c2nc3sc(C)cn3c2/C=C2\C(=O)Nc3ccccc32)c(Br)c(OC)c1OC`, the GI50 in [5] is 17500 nM; in assay [1], 23300 nM; in [10] it was 39300 nM; in assay [3] it was 22900 nM; in assay [6], 26900 nM; in assay [7], 29000 nM. Moreover, the GI50 in [4] was 29100 nM; in [8], 22.6 µM; in [9], 37100 nM. In addition, the TGI was 49.5 µM in assay [5]; 60.1 µM in assay [1]; over 100 µM in assay [10]; 51 µM in assay [3]; 55.5 µM in [6]; 78 µM in assay [7]. In addition, the figures for the TGI in assay [4], in assay [8] and in [9] were over 100 µM, 57 µM and over 100 µM, respectively.
As to `CC(=O)CC/C=C(\C)[C@H](O)[C@H](C)C(=O)O[C@H]1C[C@H](C)C=C2C=C[C@@]3(C)O[C@@H](O)CC(=O)[C@]3(C)[C@H]21`, the GI50 in assay [5] was 308 nM; in [1] it was 781 nM; in [10], 877 nM; in assay [2], 233 nM; in assay [3] it was 614 nM; in assay [6], 264 nM. For the same molecule, the GI50 in assay [7] is 394 nM; in [4], 906 nM; in assay [9], 383 nM. In addition, the TGI was 2.54 µM in [5]; 3.76 µM in [1]; 4.64 µM in assay [10]; 0.867 µM in [2]; 3.52 µM in assay [3]; 1.37 µM in assay [6]. The TGI is 1.96 µM in [7], 2.38 µM in [4] and 2.9 µM in [9].
As for `CCCCCCn1c(SC)nc(COC(=O)NC)c1COC(=O)NC`, the TGI in assay [5] turned out to be 32.6 µM; in assay [1], 34 µM; in assay [10], 27.1 µM; in assay [3], 33.5 µM; in assay [6], 36.2 µM; in [4], 38.8 µM. Also, the TGI in assay [8] was found to be 29.1 µM; in assay [9], 31.3 µM.
For `O=C(NCCCl)Nc1cccnc1`, the TGI is 41.5 µM in assay [5]; 38.3 µM in assay [10]; over 100 µM in [2]; 83.2 µM in assay [3]; 34.9 µM in assay [6]; 37.5 µM in assay [7]. Also, the TGI in assay [4] is over 100 µM; in [8] it was 36.1 µM; in assay [9], 50.3 µM.
With `NS(=O)(=O)c1ccc(NC(=O)Cc2nc3ccccc3s2)cc1`, the TGI in [5] came to 30.8 µM; in [10] it was 37.2 µM; in [2], 32.6 µM; in assay [3], 30.4 µM; in assay [6] it was 35.4 µM; in assay [7], 35.8 µM. Moreover, the results for the TGI in [4], in assay [8] and in assay [9] were 29.4 µM, 30.5 µM and 62.6 µM, respectively.
Take `c1ccncc1`: the TGI in assay [5], in [10], in assay [2], in assay [3], in assay [6] and in assay [7] was over 100 µM each time. The TGI in [4], in assay [8] and in assay [9] was over 100 µM throughout.
On to `CCN(CC)CC(C)C(=O)/C=C/c1ccc(C)cc1` (configuration not stated), for which the TGI was found to be 1.96 µM in assay [5]; 26.8 µM in assay [10]; 4.31 µM in assay [2]; 9.93 µM in assay [3]; 3.31 µM in [6]; 9.28 µM in assay [7]. Moreover, the TGI in assay [4] worked out at 4.85 µM; in [8], 2.49 µM; in assay [9], 26.4 µM.
For the molecule `N#CC(C#N)=C1CCOc2ccc(F)cc21`, the GI50 in [5] was 49700 nM; in [1], 53400 nM; in assay [2], 17400 nM; in assay [3], 11900 nM; in [6] it was 64200 nM; in assay [4] it was 19500 nM. Further, the results for the GI50 in assay [8] and in [9] were 15.4 µM and 56300 nM, respectively. In addition, the TGI in assay [5] is over 100 µM; in assay [1] it was over 100 µM; in [10], 9.3 µM; in assay [2] it was 33.5 µM; in [3], 24.2 µM; in [6], over 100 µM. The TGI in [4] was 45.9 µM; in assay [8], 51.9 µM; in assay [9], over 100 µM.
For the molecule `O=C1CC(c2ccccc2)Cc2nc3ccc(Br)cc3cc21` (configuration not stated), the GI50 in assay [5] was 368 nM; in assay [1], 589 nM; in [10], 780 nM; in assay [3], 304 nM; in [6], 244 nM; in [7], 1570 nM. The GI50 is 48.6 nM in assay [4], 0.459 µM in assay [8] and 689 nM in assay [9]. Moreover, the TGI in [5] was over 37.7 µM; in assay [1], 15.9 µM; in assay [10], over 100 µM; in assay [3], 1.14 µM; in assay [6], over 100 µM; in assay [7], 16.8 µM. Moreover, the values for the TGI in assay [4], in assay [8] and in assay [9] were 12.4 µM, over 100 µM and over 100 µM, respectively.
For `COc1ccc2c3c1OC1C(OC)(OC)C=C[C@@]4(Br)[C@@H](C2)N(CC2CC2)CC[C@]314` (some centres not stated), the TGI in assay [5], in [10], in assay [2], in assay [3], in [6] and in assay [7] was over 100 µM throughout. The TGI in assay [4], in [8] and in assay [9] was over 100 µM throughout.
As for `COc1cc([N+](=O)[O-])c(OC)cc1-c1nc2sc(C)cn2c1/C(N)=N/C(=N)N`, the GI50 in assay [5] is 2240 nM; in [1], 29800 nM; in assay [10], 15100 nM; in assay [2], 39800 nM; in assay [3], 27600 nM; in [6] it was over 100000 nM. In addition, the GI50 is over 100000 nM in assay [4], over 100 µM in assay [8] and 38300 nM in assay [9]. For the same molecule, the TGI in assay [5] was 11.1 µM; in [1] it was over 100 µM; in assay [10] it was 50.9 µM; in [2], over 100 µM; in assay [3] it was over 100 µM; in [6] it was over 100 µM. The TGI in [4], in [8] and in assay [9] was over 100 µM each time.
On to `O=C(O)c1ccc(C(O)(c2ccccc2)c2ccccc2)cc1`, for which the TGI in assay [5], in assay [1], in assay [10], in assay [3], in [4] and in assay [8] was over 100 µM throughout. Further, the TGI in assay [9] is over 100 µM.
Turning to `Cc1cnc2oc3ccc(O)cc3c2c1-c1ccccc1`, the GI50 in [5] was over 100000 nM; in assay [1] it was 19800 nM; in assay [10], 13800 nM; in [2], 18500 nM; in assay [3] it was 47500 nM; in assay [6] it was over 100000 nM. The GI50 in assay [4] was over 100000 nM; in assay [8], 58.6 µM; in [9] it was 51600 nM. For the same molecule, the TGI in [5] is over 100 µM; in assay [1] it was 98.8 µM; in [10], 65.5 µM; in assay [2], 67.3 µM; in assay [3], over 100 µM; in [6], over 100 µM. In addition, the TGI in assay [4], in [8] and in [9] was over 100 µM in each case.
Take `COC(=O)c1ccc(/C=C(\c2ccc([N+](=O)[O-])o2)S(=O)(=O)c2ccc(NC(C)=O)cc2)o1`: the TGI in assay [5] came to 27.8 µM; in assay [1], 5.43 µM; in [10] it was 26.3 µM; in assay [2], 25.7 µM; in assay [3] it was 19.7 µM; in assay [6], 5.76 µM. Moreover, the TGI in [4] was found to be 15.4 µM; in assay [8], 29.4 µM; in assay [9] it was 18.2 µM.
Turning to `COc1ccc(CCN(CC(=O)N(CC(N)=O)C2CCC[C@@H]2OCc2ccccc2)C(=O)CN(C(=O)CN(CCc2ccc(Cl)cc2)C(=O)CN(C(=O)CN(C)Cc2ccccc2F)[C@H](C)C2CCCCC2)[C@H](C)C2CCCCC2)cc1OC` (some centres not stated), the GI50 was 1580 nM in assay [5]; 1610 nM in [1]; 2850 nM in assay [10]; 1490 nM in assay [2]; 1820 nM in assay [3]; 1250 nM in [6]. The values for the GI50 in assay [7], in assay [4] and in assay [9] were 1610 nM, 1130 nM and 2200 nM, respectively. Also, the TGI in assay [5] is over 50 µM; in assay [1], 15.6 µM; in [10], over 50 µM; in assay [2] it was 3.84 µM; in [3], over 50 µM; in [6], 5.75 µM. In addition, the TGI in assay [7] is over 50 µM; in assay [4] it was 4.05 µM; in [9] it was over 50 µM.
Turning to `Cc1cc(N2CCCCC2)nc(NC2CCCC(Nc3ccnc4cc(Cl)ccc34)C2)n1` (configuration not stated), the GI50 in assay [5] is 1790 nM; in [1], 1580 nM; in assay [10], 1540 nM; in assay [2], 1120 nM; in assay [3] it was 1630 nM; in assay [7], 1750 nM. Besides, the GI50 in assay [4] is 1660 nM; in [9], 1200 nM. Further, the TGI in [5] was determined as 3.52 µM; in assay [1], 3.07 µM; in [10], 3.54 µM; in assay [2] it was 2.47 µM; in assay [3], 3.42 µM; in assay [7], 3.4 µM. Besides, the values for the TGI in assay [4] and in assay [9] were 3.29 µM and 2.48 µM, respectively.
